Laboratory results taken from ChEMBL document CHEMBL5257073, “Development of [18F]Thiazolylacylaminopyridine-Based Glycogen synthase Kinase-3β ligands for positron emission tomography imaging” (Bioorg Med Chem Lett, 2023).
Each block holds one compound with its values, some of them ahead of it.

Key:
[1] = molecular target: Glycogen synthase kinase-3 beta (Homo sapiens, UniProt P49841); experiment: Inhibition of GSK-3beta (unknown origin)
[2] = Stability in mouse plasma assessed as parent compound remaining after 4 hrs by radio-HPLC analysis; type: ADME, cell-free; details: read-out: Stability
[3] = Stability in iv dosed KM mouse assessed as radioactivity of parent compound remaining in blood after 1 hrs by radio-HPLC analysis; type: ADME, organism-based; details: in vivo
[4] = Lipophilicity, logD of compound; type: physicochemical; details: octanol/water
[5] = Biodistribution in blood of iv dosed KM mouse assessed as radioactivity after 2 mins by imaging analysis; type: ADME, organism-based; details: in vivo
[6] = Biodistribution in brain of iv dosed KM mouse assessed as radioactivity after 2 mins by imaging analysis; type: ADME, organism-based; details: in vivo
[7] = Biodistribution in heart of iv dosed KM mouse assessed as radioactivity after 2 mins by imaging analysis; type: ADME, organism-based; details: in vivo
[8] = Biodistribution in liver of iv dosed KM mouse assessed as radioactivity after 2 mins by imaging analysis; type: ADME, organism-based; details: in vivo
[9] = Biodistribution in spleen of iv dosed KM mouse assessed as radioactivity after 2 mins by imaging analysis; type: ADME, organism-based; details: in vivo
[10] = Biodistribution in lung of iv dosed KM mouse assessed as radioactivity after 2 mins by imaging analysis; type: ADME, organism-based; details: in vivo
[11] = Biodistribution in kidney of iv dosed KM mouse assessed as radioactivity after 2 mins by imaging analysis; type: ADME, organism-based; details: in vivo
[12] = Biodistribution in pancreas of iv dosed KM mouse assessed as radioactivity after 2 mins by imaging analysis; type: ADME, organism-based; details: in vivo
[13] = Biodistribution in muscle of iv dosed KM mouse assessed as radioactivity after 2 mins by imaging analysis; type: ADME, organism-based, Muscle tissue; details: in vivo
[14] = Biodistribution in bone of iv dosed KM mouse assessed as radioactivity after 2 mins by imaging analysis; type: ADME, organism-based, Bone element; details: in vivo
[15] = Biodistribution in stomach of iv dosed KM mouse assessed as radioactivity after 2 mins by imaging analysis; type: ADME, organism-based; details: in vivo
[16] = Biodistribution in small intestine of iv dosed KM mouse assessed as radioactivity after 2 mins by imaging analysis; type: ADME, organism-based; details: in vivo
[17] = Biodistribution in blood of iv dosed KM mouse assessed as radioactivity after 10 mins by imaging analysis; type: ADME, organism-based; details: in vivo
[18] = Biodistribution in brain of iv dosed KM mouse assessed as radioactivity after 10 mins by imaging analysis; type: ADME, organism-based; details: in vivo
[19] = Biodistribution in heart of iv dosed KM mouse assessed as radioactivity after 10 mins by imaging analysis; type: ADME, organism-based; details: in vivo
[20] = Biodistribution in liver of iv dosed KM mouse assessed as radioactivity after 10 mins by imaging analysis; type: ADME, organism-based; details: in vivo
[21] = Biodistribution in spleen of iv dosed KM mouse assessed as radioactivity after 10 mins by imaging analysis; type: ADME, organism-based; details: in vivo
[22] = Biodistribution in lung of iv dosed KM mouse assessed as radioactivity after 10 mins by imaging analysis; type: ADME, organism-based; details: in vivo
[23] = Biodistribution in kidney of iv dosed KM mouse assessed as radioactivity after 10 mins by imaging analysis; type: ADME, organism-based; details: in vivo
[24] = Biodistribution in pancreas of iv dosed KM mouse assessed as radioactivity after 10 mins by imaging analysis; type: ADME, organism-based; details: in vivo
[25] = Biodistribution in muscle of iv dosed KM mouse assessed as radioactivity after 10 mins by imaging analysis; type: ADME, organism-based, Muscle tissue; details: in vivo
[26] = Biodistribution in bone of iv dosed KM mouse assessed as radioactivity after 10 mins by imaging analysis; type: ADME, organism-based, Bone element; details: in vivo
[27] = Biodistribution in stomach of iv dosed KM mouse assessed as radioactivity after 10 mins by imaging analysis; type: ADME, organism-based; details: in vivo
[28] = Biodistribution in small intestine of iv dosed KM mouse assessed as radioactivity after 10 mins by imaging analysis; type: ADME, organism-based; details: in vivo
[29] = Biodistribution in blood of iv dosed KM mouse assessed as radioactivity after 30 mins by imaging analysis; type: ADME, organism-based; details: in vivo, 0.5 h
[30] = Biodistribution in brain of iv dosed KM mouse assessed as radioactivity after 30 mins by imaging analysis; type: ADME, organism-based; details: in vivo, 0.5 h
[31] = Biodistribution in heart of iv dosed KM mouse assessed as radioactivity after 30 mins by imaging analysis; type: ADME, organism-based; details: in vivo, 0.5 h
[32] = Biodistribution in liver of iv dosed KM mouse assessed as radioactivity after 30 mins by imaging analysis; type: ADME, organism-based; details: in vivo, 0.5 h
[33] = Biodistribution in spleen of iv dosed KM mouse assessed as radioactivity after 30 mins by imaging analysis; type: ADME, organism-based; details: in vivo, 0.5 h
[34] = Biodistribution in lung of iv dosed KM mouse assessed as radioactivity after 30 mins by imaging analysis; type: ADME, organism-based; details: in vivo, 0.5 h
[35] = Biodistribution in kidney of iv dosed KM mouse assessed as radioactivity after 30 mins by imaging analysis; type: ADME, organism-based; details: in vivo, 0.5 h
[36] = Biodistribution in pancreas of iv dosed KM mouse assessed as radioactivity after 30 mins by imaging analysis; type: ADME, organism-based; details: in vivo, 0.5 h
[37] = Biodistribution in muscle of iv dosed KM mouse assessed as radioactivity after 30 mins by imaging analysis; type: ADME, organism-based, Muscle tissue; details: in vivo, 0.5 h
[38] = Biodistribution in bone of iv dosed KM mouse assessed as radioactivity after 30 mins by imaging analysis; type: ADME, organism-based, Bone element; details: in vivo, 0.5 h
[39] = Biodistribution in stomach of iv dosed KM mouse assessed as radioactivity after 30 mins by imaging analysis; type: ADME, organism-based; details: in vivo, 0.5 h
[40] = Biodistribution in small intestine of iv dosed KM mouse assessed as radioactivity after 30 mins by imaging analysis; type: ADME, organism-based; details: in vivo, 0.5 h
[41] = Biodistribution in blood of iv dosed KM mouse assessed as radioactivity after 60 mins by imaging analysis; type: ADME, organism-based; details: in vivo, 1 h
[42] = Biodistribution in brain of iv dosed KM mouse assessed as radioactivity after 60 mins by imaging analysis; type: ADME, organism-based; details: in vivo, 1 h
[43] = Biodistribution in heart of iv dosed KM mouse assessed as radioactivity after 60 mins by imaging analysis; type: ADME, organism-based; details: in vivo, 1 h
[44] = Biodistribution in liver of iv dosed KM mouse assessed as radioactivity after 60 mins by imaging analysis; type: ADME, organism-based; details: in vivo, 1 h
[45] = Biodistribution in spleen of iv dosed KM mouse assessed as radioactivity after 60 mins by imaging analysis; type: ADME, organism-based; details: in vivo, 1 h
[46] = Biodistribution in lung of iv dosed KM mouse assessed as radioactivity after 60 mins by imaging analysis; type: ADME, organism-based; details: in vivo, 1 h
[47] = Biodistribution in kidney of iv dosed KM mouse assessed as radioactivity after 60 mins by imaging analysis; type: ADME, organism-based; details: in vivo, 1 h
[48] = Biodistribution in pancreas of iv dosed KM mouse assessed as radioactivity after 60 mins by imaging analysis; type: ADME, organism-based; details: in vivo, 1 h
[49] = Biodistribution in muscle of iv dosed KM mouse assessed as radioactivity after 60 mins by imaging analysis; type: ADME, organism-based, Muscle tissue; details: in vivo, 1 h
[50] = Biodistribution in bone of iv dosed KM mouse assessed as radioactivity after 60 mins by imaging analysis; type: ADME, organism-based, Bone element; details: in vivo, 1 h
[51] = Biodistribution in stomach of iv dosed KM mouse assessed as radioactivity after 60 mins by imaging analysis; type: ADME, organism-based; details: in vivo, 1 h
[52] = Biodistribution in small intestine of iv dosed KM mouse assessed as radioactivity after 60 mins by imaging analysis; type: ADME, organism-based; details: in vivo, 1 h

Sequence of Glycogen synthase kinase-3 beta (P49841 whole entry): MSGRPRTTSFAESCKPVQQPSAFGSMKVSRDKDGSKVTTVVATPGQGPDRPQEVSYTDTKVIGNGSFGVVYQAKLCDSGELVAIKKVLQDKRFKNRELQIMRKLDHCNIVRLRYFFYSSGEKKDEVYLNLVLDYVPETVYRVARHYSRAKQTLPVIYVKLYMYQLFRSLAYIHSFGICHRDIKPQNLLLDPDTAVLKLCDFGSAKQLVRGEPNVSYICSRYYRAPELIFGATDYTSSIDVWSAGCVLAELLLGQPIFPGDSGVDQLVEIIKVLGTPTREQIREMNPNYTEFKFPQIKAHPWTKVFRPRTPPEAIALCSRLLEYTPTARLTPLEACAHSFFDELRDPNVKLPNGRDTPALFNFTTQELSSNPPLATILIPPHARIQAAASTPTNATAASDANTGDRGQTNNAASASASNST

- IC50 [1]: 6 nM
Compound: CNC(=O)c1sc(-c2ccnc(NC(=O)C3CC3)c2)nc1OCCF

- IC50 [1]: 426 nM
Compound: CN(C)C(=O)c1sc(-c2ccnc(NC(=O)C3CC3)c2)nc1OCCOCCOCCF

- IC50 [1]: 68.1 nM
Compound: CCOC(=O)c1sc(-c2ccnc(NC(=O)C3CC3)c2)nc1OCCF

- IC50 [1]: 36.5 nM
Compound: CNC(=O)c1sc(-c2ccnc(NC(=O)C3CC3)c2)nc1OCCOCCF

- IC50 [1]: 345 nM
Compound: CCOC(=O)c1sc(-c2ccnc(NC(=O)C3CC3)c2)nc1OCCOCCOCCF

- IC50 [1]: 149 nM
Compound: CN(C)C(=O)c1sc(-c2ccnc(NC(=O)C3CC3)c2)nc1OCCOCCF

- IC50 [1]: 152 nM
Compound: CN(C)C(=O)c1sc(-c2ccnc(NC(=O)C3CC3)c2)nc1OCCF

- IC50 [1]: 18.2 nM
Compound: O=C(NCCF)c1sc(-c2ccnc(NC(=O)C3CC3)c2)nc1OCC1CC1

- IC50 [1]: 422 nM
Compound: CCOC(=O)c1sc(-c2ccnc(NC(=O)C3CC3)c2)nc1OCCOCCF

- remaining at 4 h [2]: > 95%
- Stability [3]: 90%
- logD [4]: 2.24
- Drug uptake [5]: 5.64 % ID/g
- Drug uptake [6]: 1.68 % ID/g
- Drug uptake [7]: 8.03 % ID/g
- Drug uptake [8]: 22.28 % ID/g
- Drug uptake [9]: 5.28 % ID/g
- Drug uptake [10]: 7.28 % ID/g
- Drug uptake [11]: 16.09 % ID/g
- Drug uptake [12]: 7.32 % ID/g
- Drug uptake [13]: 3.45 % ID/g
- Drug uptake [14]: 2.83 % ID/g
- Drug uptake [15]: 2.53 % ID/g
- Drug uptake [16]: 9.74 % ID/g
- Drug uptake [17]: 3.5 % ID/g
- Drug uptake [18]: 0.77 % ID/g
- Drug uptake [19]: 5.44 % ID/g
- Drug uptake [20]: 32.93 % ID/g
- Drug uptake [21]: 4.48 % ID/g
- Drug uptake [22]: 4.5 % ID/g
- Drug uptake [23]: 14.4 % ID/g
- Drug uptake [24]: 5.07 % ID/g
- Drug uptake [25]: 2.18 % ID/g
- Drug uptake [26]: 2.42 % ID/g
- Drug uptake [27]: 3.29 % ID/g
- Drug uptake [28]: 11.16 % ID/g
- Drug uptake [29]: 2.18 % ID/g
- Drug uptake [30]: 0.42 % ID/g
- Drug uptake [31]: 3.41 % ID/g
- Drug uptake [32]: 23.75 % ID/g
- Drug uptake [33]: 2.91 % ID/g
- Drug uptake [34]: 2.87 % ID/g
- Drug uptake [35]: 13.09 % ID/g
- Drug uptake [36]: 3.05 % ID/g
- Drug uptake [37]: 1.38 % ID/g
- Drug uptake [38]: 2.05 % ID/g
- Drug uptake [39]: 2.92 % ID/g
- Drug uptake [40]: 24.4 % ID/g
- Drug uptake [41]: 1.11 % ID/g
- Drug uptake [42]: 0.31 % ID/g
- Drug uptake [43]: 1.73 % ID/g
- Drug uptake [44]: 15.27 % ID/g
- Drug uptake [45]: 1.4 % ID/g
- Drug uptake [46]: 1.54 % ID/g
- Drug uptake [47]: 7.11 % ID/g
- Drug uptake [48]: 1.76 % ID/g
- Drug uptake [49]: 0.87 % ID/g
- Drug uptake [50]: 2.91 % ID/g
- Drug uptake [51]: 1.88 % ID/g
- Drug uptake [52]: 31.31 % ID/g
Compound: CNC(=O)c1sc(-c2ccnc(NC(=O)C3CC3)c2)nc1OCC[18F]

- IC50 [1]: 42.1 nM
Compound: O=C(Nc1cc(-c2nc(OCC3CC3)c(C(=O)N3CC(F)C3)s2)ccn1)C1CC1
